Measured values as given in patent US9487559B2, “Compositions comprising multivalent synthetic ligands of surface nucleolin and glycosaminoglycans” (ELRO PHARMA SARL, priority 2010, dated 2016).
Entries after “also recorded” stand apart in the source; their conditions may differ.

Columns and labels:
PANC1 cells = assay: PANC1 proliferation, gemcitabine alone or combined with N6L, Cs-C or nanoparticles, MTT assay; assay type: cell-based, human; settings: gemcitabine 1 nM to 50 nM, every day for 4 days, 5% FBS
Procedure: FIG. 22. Nanoparticles, but not N6L, induce the activity of gemcitabine. Similar number of PANC1 cells was treated with increasing concentrations of gemcitabine alone or in combination with N6L, Cs-C, or nanoparticles composed by Cs-C.

[1] = test system: U87-MG (Human glioblastoma-astrocytoma) cells; assay: Anchorage-dependent proliferation of U87-MG cells, MTT assay; assay type: cell-based; settings: whatever the concentration used (0.1-1000 μg/ml)
[2] = test system: PANC-1 (Human pancreatic carcinoma) cells; assay: Anchorage-dependent proliferation of PANC-1 cells, MTT assay; assay type: cell-based; settings: whatever the concentration used (0.1-1000 μg/ml)
[3] = test system: chicken embryo chorioallantoic membrane; assay: In vivo angiogenesis, chicken embryo chorioallantoic membrane (CAM) assay; settings: heparin or CS-C applied alone on the CAM, 48 h
Procedure: FIG. 21. […] An 1 cm2 area of chicken embryo CAM, restricted by a silicon ring, was incubated with 20 μM N6L or nanoparticles composed by 20 μM N6L and […] heparin or Cs-C. 48 h later, total vessels length was quantified. We observed that N6L had no effect on the in vivo angiogenesis, in contrast to the heparin or Cs-C composed nanoparticles that inhibited the development of new blood vessels (50% and 70%, respectively). Results are mean values±SD from at least 3 independent experiments.
To analyse the effects of N6L pre-incubated with sulfated glycoaminoglycans on in vivo angiogenesis using chicken embryo chorioallantoic membrane assay.
Leghorn fertilized eggs were incubated for 4 days at 37° C. A window was then opened on the eggshell, exposing the CAM. The window was covered with sterile tape, and the eggs were returned to the incubator. On day 9 of embryo development, […] of distilled water as a control or containing either 20 μM N6L, […] or 10 μg/ml CS-C alone or 20 μM N6L pre-incubated with either 10 μg/ml heparin or 10 μg/ml CS-C inside a silicone ring to restricted the area which is 1 cm^2. […] Photographs were taken and the total length of the vessels was quantified using PC image-analysis software (Scion Corporation, USA). […]

Nc1ccn([C@@H]2O[C@H](CO)[C@@H](O)C2(F)F)c(=O)n1 [gemcitabine]
inhibition of PANC1 proliferation by gemcitabine alone (PANC1 cells): slight inhibition; also recorded: slightly inhibited

chondroitin-6-sulfate [Cs-C]
effect of GAG alone on U87-MG proliferation [1]: no effect | effect of GAG alone on PANC-1 proliferation [2]: no effect | effect of GAG alone on in vivo angiogenesis [3]: no effect

heparin
effect of GAG alone on U87-MG proliferation [1]: no effect | effect of GAG alone on PANC-1 proliferation [2]: no effect | effect of GAG alone on in vivo angiogenesis [3]: no effect
